According to US10246422B2, “Heterocyclic compounds and use thereof in medicine and in cosmetics” (GALDERMA RESEARCH & DEVELOPMENT, priority 2014, dated 2019):

Experiment: Metabolic stability in the presence of human hepatic microsomes
Type: in vitro ADME
Settings: compound 1 μM (DMSO 0.1%), microsomal protein 0.5 mg/mL, LC/MS/MS
Experimental: This is illustrated more particularly by the test of metabolic stability in the presence of human hepatic microsomes presented below.
Human hepatic microsomes (Becton Dickinson) are incubated at a protein concentration of 0.5 mg/mL in the reaction mixture.
The reaction mixture of the microsomes consists of phosphate buffer pH: 7.4 at 100 mM, MgCl2 at 100 mM (50/50), a system for generating […] consisting of a mixture of nicotinamide adenine […] (NADP), glucose-6-phosphate (G6P) at 1 mg/mL and glucose-6-phosphate dehydrogenase (G6PDH) at 4 U/mL. The compounds are tested at 1 μM (DMSO 0.1%).
The samples are taken from the incubation medium after adding the microsomes, at time 15 minutes. The metabolic reaction is stopped by adding methanol (1 volume incubation medium/3 volumes of methanol). The percentage of the parent product remaining after 15 minutes is measured by LC/MS/MS analysis.

| SMILES | % of product remaining at 15 min (human hepatic microsomes) |
| --- | --- |
| COc1ccc2c(c1)CCN(C1CCN(C(=O)Cn3cc(-c4cccc(F)c4Cl)c(=O)n([C@@H](C)CNC(C)=O)c3=O)CC1)C(=O)N2 [Compound 115, N—[(S)-2-(5-(2-chloro-3-fluorophenyl)-3-{2-[4-(7-methoxy-2-oxo-1,2,4,5-tetrahydro-benzo[d][1,3]diazepin-3-yl)-piperidin-1-yl]-2-oxo-ethyl}-2,6-dioxo-3,6-dihydro-2H-pyrimidin-1-yl)-propyl]acetamide] | 0% |
| COc1ccc2c(c1)CCN(C1CCN(C(=O)Cn3cc(-c4cccc(F)c4Cl)c(=O)n([C@@H](C)CNS(C)(=O)=O)c3=O)CC1)C(=O)N2 [Compound 120, N—[(S)-2-(5-(2-chloro-3-fluorophenyl)-3-{2-[4-(7-methoxy-2-oxo-1,2,4,5-tetrahydro-benzo[d][1,3]diazepin-3-yl)-piperidin-1-yl]-2-oxo-ethyl}-2,6-dioxo-3,6-dihydro-2H-pyrimidin-1-yl)-propyl]-methanesulphonamide] | 1% |
| COc1ccc2c(c1)CCN(C1CCN(C(=O)Cn3cc(-c4cccc(F)c4Cl)c(=O)n([C@@H](C)CS(C)(=O)=O)c3=O)CC1)C(=O)N2 [Compound 142, 5-(2-chloro-3-fluorophenyl)-3-((S)-2-methanesulphonyl-1-methylethyl)-1-{2-[4-(7-methoxy-2-oxo-1,2,4,5-tetrahydro-benzo[d][1,3]diazepin-3-yl)-piperidin-1-yl]-2-oxo-ethyl}-1H-pyrimidine-2,4-dione] | 65% |
| COc1ccc2c(c1)CCN(C1CCN(C(=O)Cn3cc(-c4cccc(F)c4Cl)c(=O)n([C@H](C)CS(C)(=O)=O)c3=O)CC1)C(=O)N2 [Compound 143, 5-(2-chloro-3-fluorophenyl)-3-((R)-2-methanesulphonyl-1-methylethyl)-1-{2-[4-(7-methoxy-2-oxo-1,2,4,5-tetrahydro-benzo[d][1,3]diazepin-3-yl)-piperidin-1-yl]-2-oxo-ethyl}-1H-pyrimidine-2,4-dione] | 42% |
| CCC(=O)NC[C@H](C)n1c(=O)c(-c2cccc(F)c2Cl)cn(CC(=O)N2CCC(N3CCc4cc(OC)ccc4NC3=O)CC2)c1=O [Compound 158, N—[(S)-2-(5-(2-chloro-3-fluorophenyl)-3-{2-[4-(7-methoxy-2-oxo-1,2,4,5-tetrahydro-benzo[d][1,3]diazepin-3-yl)-piperidin-1-yl]-2-oxo-ethyl}-2,6-dioxo-3,6-dihydro-2H-pyrimidin-1-yl)-propyl]-propionamide] | 0% |
| COC[C@H](C)n1c(=O)c(-c2cccc(F)c2Cl)cn(CC(=O)Nc2ccc3c(c2)C[C@@]2(C3)C(=O)Nc3ncccc32)c1=O [Compound 165] | 0% |
| COc1ccc2c(c1)CCN(C1CCN(C(=O)Cn3cc(-c4cccc(OC)c4Cl)c(=O)n([C@@H](C)CNC(C)=O)c3=O)CC1)C(=O)N2 [Compound 206, N—[(S)-2-(5-(2-chloro-3-methoxyphenyl)-3-{2-[4-(7-methoxy-2-oxo-1,2,4,5-tetrahydro-benzo[d][1,3]diazepin-3-yl)-piperidin-1-yl]-2-oxo-ethyl}-2,6-dioxo-3,6-dihydro-2H-pyrimidin-1-yl)-propyl]acetamide] | 1% |
| COCC(COC)n1c(=O)c(-c2cccc(F)c2Cl)cn(CC(=O)N2CCC(N3CCc4cc(OC)ccc4NC3=O)CC2)c1=O [Compound 232, 5-(2-chloro-3-fluorophenyl)-3-[2-methoxy-1-(methoxymethyl)ethyl]-1-[2-[4-(7-methoxy-2-oxo-4,5-dihydro-1H-1,3-benzodiazepin-3-yl)-1-piperidyl]-2-oxo-ethyl]pyrimidine-2,4-dione] | 1% |
| COc1ccc2c(c1)CCN(C1CCN(C(=O)Cn3cc(-c4cccc(F)c4Cl)c(=O)n(CC(C)(C)OC)c3=O)CC1)C(=O)N2 [Compound 240, 5-(2-chloro-3-fluorophenyl)-3-(2-methoxy-2-methylpropyl)-1-[2-[4-(7-methoxy-2-oxo-4,5-dihydro-1H-1,3-benzodiazepin-3-yl)-1-piperidyl]-2-oxo-ethyl]pyrimidine-2,4-dione] | 0% |
| COc1ccc2c(c1)CCN(C1CCN(C(=O)Cn3cc(-c4cccc(F)c4Cl)c(=O)n(CCn4cnnc4)c3=O)CC1)C(=O)N2 [Compound 251, 5-(2-chloro-3-fluorophenyl)-1-[2-[4-(7-methoxy-2-oxo-4,5-dihydro-1H-1,3-benzodiazepin-3-yl)-1-piperidyl]-2-oxo-ethyl]-3-[2-(1,2,4-triazol-4-yl)ethyl]pyrimidine-2,4-dione] | 4% |
| O=C(CN1C(=O)C2(CCCC2)NC[C@H]1c1cc(F)cc(F)c1)Nc1ccc2c(c1)C[C@@]1(C2)C(=O)Nc2ncccc21 [MK-3207, reference compound] | 100% |
| NCCCC[C@H](NC(=O)[C@@H](Cc1cc(Br)c(O)c(Br)c1)NC(=O)N1CCC(N2Cc3ccccc3NC2=O)CC1)C(=O)N1CCN(c2ccncc2)CC1 [Olcegepant, olcegepant, reference compound] | 100% |
| O=C(N[C@@H]1CC[C@@H](c2cccc(F)c2F)CN(CC(F)(F)F)C1=O)N1CCC(n2c(=O)[nH]c3ncccc32)CC1 [Telcagepant, telcagepant, reference compound] | 100% |

The remaining lines, values ahead:

| % of product remaining at 15 min (human hepatic microsomes) | SMILES |
| --- | --- |
| 8% | COc1c(C)cccc1-c1cn(CC(=O)N2CCC(N3CCc4ccccc4NC3=O)CC2)c(=O)n(C)c1=O [Compound 25, 5-(2-methoxy-3-methylphenyl)-3-methyl-1-{2-oxo-2-[4-(2-oxo-1,2,4,5-tetrahydro-benzo[d][1,3]diazepin-3-yl)-piperidin-1-yl]-ethyl}-1H-pyrimidine-2,4-dione] |
| 16% | Cc1cccc(-c2cn(CC(=O)N3CCC(N4CCc5ccccc5NC4=O)CC3)c(=O)n(C)c2=O)c1C [Compound 30, 5-(2,3-dimethylphenyl)-3-methyl-1-{2-oxo-2-[4-(2-oxo-1,2,4,5-tetrahydro-benzo[d][1,3]diazepin-3-yl)-piperidin-1-yl]-ethyl}-1H-pyrimidine-2,4-dione] |
| 45% | CC(C)n1c(=O)c(-c2cccc(F)c2Cl)cn(CC(=O)N2CCC(N3CCc4ccccc4NC3=O)CC2)c1=O [Compound 63, 5-(2-chloro-3-fluorophenyl)-3-isopropyl-1-{2-oxo-2-[4-(2-oxo-1,2,4,5-tetrahydro-benzo[d][1,3]diazepin-3-yl)-piperidin-1-yl]-ethyl}-1H-pyrimidine-2,4-dione] |
| 1% | COC[C@@H](C)n1c(=O)c(-c2cccc(F)c2Cl)cn(CC(=O)N2CCC(N3CCc4ccccc4NC3=O)CC2)c1=O [Compound 110, 5-(2-chloro-3-fluorophenyl)-3-((R)-2-methoxy-1-methylethyl)-1-{2-oxo-2-[4-(2-oxo-1,2,4,5-tetrahydro-benzo[d][1,3]diazepin-3-yl)-piperidin-1-yl]-ethyl}-1H-pyrimidine-2,4-dione] |
| 0% | CSCCn1c(=O)c(-c2cccc(F)c2Cl)cn(CC(=O)N2CCC(N3CCc4ccccc4NC3=O)CC2)c1=O [Compound 112, 5-(2-chloro-3-fluorophenyl)-3-(2-methylsulphanyl-ethyl)-1-{2-oxo-2-[4-(2-oxo-1,2,4,5-tetrahydro-benzo[d][1,3]diazepin-3-yl)-piperidin-1-yl]-ethyl}-1H-pyrimidine-2,4-dione] |
| 41% | COC(=O)CCn1c(=O)c(-c2cccc(F)c2Cl)cn(CC(=O)N2CCC(N3CCc4ccccc4NC3=O)CC2)c1=O [Compound 114, 3-(5-(2-chloro-3-fluorophenyl)-2,6-dioxo-3-{2-oxo-2-[4-(2-oxo-1,2,4,5-tetrahydro-benzo[d][1,3]diazepin-3-yl)-piperidin-1-yl]-ethyl}-3,6-dihydro-2H-pyrimidin-1-yl)-methyl propionate] |
| 26% | COc1ccc2c(c1)CCN(C1CCN(C(=O)Cn3cc(-c4cccc(OC)c4F)c(=O)n(C(C)C)c3=O)CC1)C(=O)N2 [Compound 149, 5-(2-fluoro-3-methoxyphenyl)-3-isopropyl-1-{2-[4-(7-methoxy-2-oxo-1,2,4,5-tetrahydro-benzo[d][1,3]diazepin-3-yl)-piperidin-1-yl]-2-oxo-ethyl}-1H-pyrimidine-2,4-dione] |
| 0% | COc1ccc2c(c1)CCN(C1CCN(C(=O)Cn3cc(-c4ccccc4OC(F)(F)F)c(=O)n(C(C)C)c3=O)CC1)C(=O)N2 [Compound 150, 3-isopropyl-1-{2-[4-(7-methoxy-2-oxo-1,2,4,5-tetrahydro-benzo[d][1,3]diazepin-3-yl)-piperidin-1-yl]-2-oxo-ethyl}-5-(2-trifluoromethoxyphenyl)-1H-pyrimidine-2,4-dione] |
| 18% | COc1cccc(C2=CN(CC(=O)N3CCC(N4CCc5ccccc5NC4=O)CC3)C(=O)N(C(C)C)C2)c1Cl [Compound 193, 3-(1-{2-[5-(2-chloro-3-methoxyphenyl)-3-isopropyl-2-oxo-3,4-dihydro-2H-pyrimidin-1-yl]-acetyl}-piperidin-4-yl)-1,3,4,5-tetrahydro-benzo[d][1,3]diazepin-2-one] |
| 3% | CC[C@H](C)n1c(=O)c(-c2cccc(F)c2Cl)cn(CC(=O)N2CCC(N3CCc4cc(OC)ccc4NC3=O)CC2)c1=O [Compound 237, 5-(2-chloro-3-fluorophenyl)-1-[2-[4-(7-methoxy-2-oxo-4,5-dihydro-1H-1,3-benzodiazepin-3-yl)-1-piperidyl]-2-oxo-ethyl]-3-[(1S)-1-methylpropyl]pyrimidine-2,4-dione] |
